{"source": "patent US20150313241A1", "about": "“Pesticidal Mixtures” (BASF Corporation, priority 2012, published 2015)", "tested_on": "wheat", "assay": "Improvement of plant height in wheat (greenhouse pot trial, Use Example H-2)", "format": "in vivo", "details": "wheat cv. J B Asano, 14 days at 20° C., % compared to untreated control (100 = 13.9 cm), pyraclostrobin 5 g ai/100 kg seeds as seed treatment, B. simplex broth 10 ml per seed as drench", "description": "Pyraclostrobin was applied as commercial seed treatment formulation STAMINA (200 g/L a.i., BASF SE, Ludwigshafen, Germany).\nIn pot trials in Limburgerhof greenhouses, Bacillus simplex ABU 288 was tested in wheat and maize as solo products and in combination with pyraclostrobin to show effects on plant height. The application of the pyraclostrobin was done as seed treatment and the seeds were treated in the BASF Seed Solutions Technology Center (SSTC) Limburgerhof using a batch lab treater. The respective amounts of seeds was placed in the bowl of the treater and the slurry was dosed on the spinning disk.\nThe bacterials were grown in shake flasks and used as fermentation broth with a CFU of at least 1×10^12 per ml. This broth was added as a drench solution directly adjacent to the seeds with 10 ml for each seed kernel which makes 50 ml per pot.\nThe trial was sown in 8 cm pots and a mix of peat substrate and sand (ratio 1:4) was used as a substrate. […]\nFor the assessment, the plant height from all plants was measured in cm. […]\nThe expected relative plant height of active compound combinations were determined using Colby's formula (Colby, S. R. “Calculating synergistic and antagonistic responses of herbicide combinations”, Weeds 15, pp. 20-22, 1967) and compared with the observed efficacies. […]"}
{"substance": "pyraclostrobin", "values": [{"measurement": "Observed relative plant height", "value": 99.4, "unit": "%"}]}
